≈ marks a conversion by molar mass, not a printed value.
Tests used:
[1] = Sub-acute toxicity in albino Wistar rat assessed as change in serum protein level at 10 mg/kg, po administered for 28 days measured post last dose (reference value: […]); type: organism-based; conditions: in vivo, 672 h
[2] = Sub-acute toxicity in albino Wistar rat assessed as change in Urea level at 1.25 mg/kg, po administered for 28 days measured post last dose (reference value: 24.54 +/- 2.12 mg/dl); type: organism-based; conditions: in vivo, 672 h
[3] = Sub-acute toxicity in albino Wistar rat assessed as change in ALT level at 5 mg/kg, po administered for 28 days measured post last dose (reference value: 12.19 +/- 1.78 U/L); type: organism-based; conditions: in vivo, 672 h
[4] = Sub-acute toxicity in albino Wistar rat assessed as salivation at 1.25 to 10 mg/kg, po administered for 28 days; type: organism-based; conditions: in vivo, 672 h
[5] = Sub-acute toxicity in albino Wistar rat assessed as tremors at 1.25 to 10 mg/kg, po administered for 28 days; type: organism-based; conditions: in vivo, 672 h
[6] = Sub-acute toxicity in albino Wistar rat assessed as change in hemoglobin level at 10 mg/kg, po administered for 28 days measured post last dose (reference value: 12.14 +/- 1.45 g%); type: organism-based; conditions: in vivo, 672 h
[7] = Sub-acute toxicity in albino Wistar rat assessed as change in MDA level per mg protein at 1.25 mg/kg, po administered for 28 days measured post last dose (reference value: 0.91 +/- 0.1 nmol); type: organism-based; conditions: in vivo, 672 h
[8] = Sub-acute toxicity in albino Wistar rat assessed as effect on sleep at 1.25 to 10 mg/kg, po administered for 28 days; type: organism-based; conditions: in vivo, 672 h
[9] = Sub-acute toxicity in albino Wistar rat assessed as effect on somatomotor system at 1.25 to 10 mg/kg, po administered for 28 days; type: organism-based; conditions: in vivo, 672 h
[10] = Sub-acute toxicity in albino Wistar rat assessed as diarrhea at 1.25 to 10 mg/kg, po administered for 28 days; type: organism-based; conditions: in vivo, 672 h
[11] = Sub-acute toxicity in albino Wistar rat assessed as change in body weight at 1.25 to 10 mg/kg, po administered for 28 days; type: organism-based; conditions: in vivo, 672 h
[12] = Sub-acute toxicity in albino Wistar rat assessed as change in hemoglobin level at 2.5 mg/kg, po administered for 28 days measured post last dose (reference value: 12.14 +/- 1.45 g%); type: organism-based; conditions: in vivo, 672 h
[13] = Sub-acute toxicity in albino Wistar rat assessed as change in serum protein level at 5 mg/kg, po administered for 28 days measured post last dose (reference value: […]); type: organism-based; conditions: in vivo, 672 h
[14] = Sub-acute toxicity in albino Wistar rat assessed as change in CAT level per mg protein at 5 mg/kg, po administered for 28 days measured post last dose (reference value: 28.45 +/- 2.1 U); type: organism-based; conditions: in vivo, 672 h
[15] = Sub-acute toxicity in albino Wistar rat assessed as change in MDA level per mg protein at 10 mg/kg, po administered for 28 days measured post last dose (reference value: 0.91 +/- 0.1 nmol); type: organism-based; conditions: in vivo, 672 h
[16] = tested on: DHFR (human versus Mycobacterium tuberculosis H37Rv); assay: Selectivity index, ratio of IC50 for human DHFR to IC50 for Mycobacterium tuberculosis H37Rv DHFR expressed in Escherichia coli BL21(DE3); type: toxicity; conditions: human and Mycobacterium tuberculosis H37Rv; read-out: Ratio IC50
[17] = Sub-acute toxicity in albino Wistar rat assessed as change in hemoglobin level at 1.25 mg/kg, po administered for 28 days measured post last dose (reference value: 12.14 +/- 1.45 g%); type: organism-based; conditions: in vivo, 672 h
[18] = Sub-acute toxicity in albino Wistar rat assessed as change in ALT level at 2.5 mg/kg, po administered for 28 days measured post last dose (reference value: 12.19 +/- 1.78 U/L); type: organism-based; conditions: in vivo, 672 h
[19] = Sub-acute toxicity in albino Wistar rat assessed as effect on water intake at 1.25 to 10 mg/kg, po administered for 28 days measured post last dose; type: organism-based; conditions: in vivo, 672 h
[20] = Sub-acute toxicity in albino Wistar rat assessed as change in AST level at 10 mg/kg, po administered for 28 days measured post last dose (reference value: 25 +/- 1.76 U/L); type: organism-based; conditions: in vivo, 672 h
[21] = Sub-acute toxicity in albino Wistar rat assessed as change in AST level at 1.25 mg/kg, po administered for 28 days measured post last dose (reference value: 22.5 +/- 1.76 U/L); type: organism-based; conditions: in vivo, 672 h
[22] = Sub-acute toxicity in albino Wistar rat assessed as effect on neurological changes at 1.25 to 10 mg/kg, po administered for 28 days; type: organism-based; conditions: in vivo, 672 h
[23] = Sub-acute toxicity in albino Wistar rat assessed as change in MDA level per mg protein at 2.5 mg/kg, po administered for 28 days measured post last dose (reference value: 0.91 +/- 0.1 nmol); type: organism-based; conditions: in vivo, 672 h
[24] = Sub-acute toxicity in albino Wistar rat assessed as change in ALT level at 1.25 mg/kg, po administered for 28 days measured post last dose (reference value: 12.19 +/- 1.78 U/L); type: organism-based; conditions: in vivo, 672 h
[25] = Sub-acute toxicity in albino Wistar rat assessed as change in CAT level per mg protein at 2.5 mg/kg, po administered for 28 days measured post last dose (reference value: 28.45 +/- 2.1 U); type: organism-based; conditions: in vivo, 672 h
[26] = tested on: Mycobacterium tuberculosis; assay: microbe, parasite or virus in culture; conditions: H37Rv ATCC 27294, 168 h
Description: Antitubercular activity against Mycobacterium tuberculosis H37Rv ATCC 27294 after 7 days by microplate alamar blue method

[27] = Sub-acute toxicity in albino Wistar rat assessed as change in SOD level per mg protein at 5 mg/kg, po administered for 28 days measured post last dose (reference value: 4.85 +/- 0.34 U); type: organism-based; conditions: in vivo, 672 h

## CC(=O)c1c(C)n(Cc2ccccc2)c2ccc(OCc3cn(-c4ccc(Br)cc4)nn3)cc12
[1]
  Activity: 7.76 mg/dL
[2]
  Activity: 25.12 mg/dL
[3]
  Activity: 14.32 U/L
[4]
  Activity: Non-Toxic
[5]
  Activity: Non-Toxic
[6]
  Activity: 13.98 g%
[7]
  Activity: 0.95 nmol
[8]
  Activity: Non-Toxic
[9]
  Activity: Non-Toxic
[10]
  Activity: Non-Toxic
[11]
  Activity: Toxic
[12]
  Activity: 12.83 g%
[13]
  Activity: 7.54 mg/dL
[14]
  Activity: 31.34 U
[15]
  Activity: 1.23 nmol
[16]
  selectivity ratio: 18.4
[17]
  Activity: 12.12 g%
[18]
  Activity: 12.68 U/L
[19]
  Activity: Non-Toxic
[20]
  Activity: 26.98 U/L
[21]
  Activity: 23.43 U/L
[22]
  Activity: Non-Toxic
[23]
  Activity: 1.05 nmol
[24]
  Activity: 13.09 U/L
[25]
  Activity: 30.11 U
[26]
  MIC: 3.03 µM (≈ 1.56 µg/mL)
[27]
  Activity: 5.21 U
